Data published in patent US8895738B2, “Mesoionic pyrido [1, 2-A] pyrimidine pesticides” (E I du Pont de Nemours and Company, priority 2010, dated 2014).
Where a name gives a salt, the structure may show the parent alone.

Assays:
Format in all cases: in vivo
[1] = test system: rice green leafhopper (Nephotettix virescens); assay: Test G: control of rice green leafhopper on rice plant; details: 120 h, assessed after 5 days, read-out: control efficacy: mortality
Description: (§1) For evaluating control of rice green leafhopper (Nephotettix virescens) through contact and/or systemic means, the test unit consisted of a plastic pot containing a 13-cm-tall rice plant covered with steel wire mesh (50 mesh) supported by a wire frame. A small amount of sand was added to form a good seal between the bottom of the wire mesh, the soil surface and the top edge of the plastic pot.
(§2) Test compounds were formulated and sprayed at 50, 10 and/or 2 ppm, and the tests were replicated three times in a manner similar to the one described for Test A. After spraying, the test units were allowed to dry for 2 h before they were post-infested with 10 green leafhoppers (3rd instar nymphs, 7-9 days post-hatch). After 5 days, each test unit was visually assessed for insect mortality.

[2] = test system: potato leafhopper (Empoasca fabae); assay: Test E: control of potato leafhopper on Soleil bean plant, contact and/or systemic; details: 144 h, assessed after 6 days, read-out: control efficacy: mortality
Description: For evaluating control of potato leafhopper (Empoasca fabae) through contact and/or systemic means, the test unit consisted of a small open container with a 5-6-day-old Soleil bean plant (primary leaves emerged) inside. White sand was added to the top of the soil and one of the primary leaves was excised prior to application.
Test compounds were formulated and sprayed at 250, 50, 10 and/or 2 ppm, and the tests were replicated three times as described for Test A. After spraying, the test units were allowed to dry for 1 h before they were post-infested with 5 potato leafhoppers (18-21-day-old adults). A black, screened cap was placed on the top of each test unit, and the test units were held for 6 days in a growth chamber at 24° C. and 70% relative humidity. Each test unit was then visually assessed for insect mortality.

[3] = test system: Rice plants (indica cultivar ‘JAYA’); assay: Test K: vigor, height and panicle length of rice crop outdoors, Gujarat; details: for crop vigor (visual rating, 0 to 200% scale, untreated = 100%): 32 days after application, Nilaparvata lugens level moderate; for average height of rice plants / average panicle length of rice plants: 45 days after application; for average height of rice plants: untreated 0.78 m; for average panicle length of rice plants: untreated 22.4 cm
Description: (§3) To evaluate the effect of application of a compound of the invention on the vigor of rice crops grown under outdoor conditions, Tests 1 through 0 were conducted. “a.i.” refers to the amount of active ingredient applied.
Rice plants (indica cultivar ‘JAYA’) were transplanted into flooded 6 m×5 m test plots of clay loam soil under shade cloth in the State of Gujarat, India during the hot season before monsoon arrival, and grown using local agronomic practices. Accordingly, after 44 days from transplanting, all rice plants in this test were sprayed with an aqueous mixture containing 30 g a.i./ha of cypermethrin and 100 g a.i./ha of picoxystrobin. After 53 days from transplanting, aqueous mixtures of Compound 3 were applied to the foliage of the rice plants at 6.25, 12.5, 25 or 50 g a.i./ha in a spray volume of 500 L/ha using a backpack sprayer. Plots of unsprayed rice plants were used as controls. Each treatment and control was replicated three times, and the plots were arranged in a randomized complete block design. At the time of application of Compound 3, the pest level of rice brown planthopper (Nilaparvata lugens) was moderate, but still above the level considered economically significant.
At 45 days after application, the height and panicle length of the rice plants were measured. Plant height was determined by measuring length from vertically extended longest leaf tip to soil surface. Panicle length was measured similarly. The average height of rice plants treated with 6.25, 12.5, 25 and 50 g a.i./ha of Compound 3 was 0.94, 0.92, 0.92 and 0.99 m, respectively, compared to 0.78 m for untreated control plants. The average panicle length of rice plants treated with 6.25, 12.5, 25 and 50 g a.i./ha of Compound 3 was 23.8, 23.7, 24.9 and 24.6 cm, respectively, compared to 22.4 cm for untreated control plants.

[4] = test system: rice brown planthopper (Nilaparvata lugens); assay: Test H: control of rice brown planthopper on rice plant; details: 120 h, assessed after 5 days, read-out: control efficacy: mortality
Description: as §1, with “brown planthopper (Nilaparvata lugens)” for “green leafhopper (Nephotettix virescens)”
as §2, with “at 10, 2” for “at 50, 10”, “and/or 0.4” for “and/or 2”, “10 brown planthoppers” for “10 green leafhoppers”

[5] = test system: cotton melon aphid (Aphis gossypii); assay: Test C: control of cotton melon aphid on cotton plant, contact and/or systemic
Excerpt: For evaluating control of cotton melon aphid (Aphis gossypii) through contact and/or systemic means, the test unit consisted of a small open container with a 6-7-day-old cotton plant inside. This was pre-infested with 30-40 insects on a piece of leaf according to the cut-leaf method described for Test B, and the soil of the test unit was covered with a layer of sand.
Test compounds were formulated and sprayed at 250 and/or 50 ppm as described for Test B. The applications were replicated three times. After spraying, the test units were maintained in a growth chamber and then visually rated as described for […].

[6] = test system: Rice plants (indica cultivar); assay: Test M: vigor of direct seeded rice crop outdoors, An Giang, Vietnam; details: all application rates (6.25, 12.5, 25 or 50 g a.i./ha) with 30 g a.i./ha indoxacarb and 20 g a.i./ha chlorantraniliprole; 18 days after application; Nilaparvata lugens level very low
Description: as §3
Rice plants (indica cultivar) were direct seeded into flooded 6 m×5 m test plots of clay loam soil in An Giang Province of Vietnam shortly before the monsoon, and grown using local agronomic practices. After 42 days, at the beginning of the wet season, aqueous mixtures containing 30 g a.i./ha of indoxacarb in form of STEWARD® Insecticide, 20 g a.i./ha of chlorantraniliprole, and 6.25, 12.5, 25 or 50 g a.i./ha of Compound 3 were applied to the foliage of the rice plants at in a spray volume of 400 L/ha using a motorized sprayer. Plots of control rice plants were sprayed with an aqueous mixture containing 30 g a.i./ha of indoxacarb in form of STEWARD® Insecticide and 20 g a.i./ha of chlorantraniliprole (i.e. no Compound 3). Each treatment and control was replicated three times, and the plots were arranged in a randomized complete block design. At the time of application of Compound 3, the pest level of rice brown planthopper (Nilaparvata lugens) was very low.

O=c1c(-c2cccc(C(F)(F)F)c2)c([O-])[n+](Cc2cncnc2)c2ccccn12 [Compound 3, 2-hydroxy-4-oxo-1-(5-pyrimidinylmethyl)-3-[3-(trifluoromethyl)phenyl]-4H-pyrido[1,2-a]pyrimidinium inner salt]
mortality at 2 ppm ([1]; sprayed at 2 ppm): ≥ 80% | mortality at 10 ppm ([1]; sprayed at 10 ppm): ≥ 80% | mortality at 50 ppm ([1]; sprayed at 50 ppm): ≥ 80% | mortality at 10 ppm ([2]; sprayed at 10 ppm): ≥ 80% | mortality at 50 ppm ([2]; sprayed at 50 ppm): ≥ 80% | mortality at 250 ppm ([2]; sprayed at 250 ppm): ≥ 80% | crop vigor (visual rating, 0 to 200% scale, untreated = 100%) ([3]; 6.25 g a.i./ha foliar): 115% | average height of rice plants ([3]; 6.25 g a.i./ha): 0.94 m | average panicle length of rice plants ([3]; 6.25 g a.i./ha): 23.8 cm | crop vigor (visual rating, 0 to 200% scale, untreated = 100%) ([3]; 12.5 g a.i./ha foliar): 113% | average height of rice plants ([3]; 12.5 g a.i./ha): 0.92 m | average panicle length of rice plants ([3]; 12.5 g a.i./ha): 23.7 cm | crop vigor (visual rating, 0 to 200% scale, untreated = 100%) ([3]; 25 g a.i./ha foliar): 122% | average height of rice plants ([3]; 25 g a.i./ha): 0.92 m | average panicle length of rice plants ([3]; 25 g a.i./ha): 24.9 cm | crop vigor (visual rating, 0 to 200% scale, untreated = 100%) ([3]; 50 g a.i./ha foliar): 115% | average height of rice plants ([3]; 50 g a.i./ha): 0.99 m | average panicle length of rice plants ([3]; 50 g a.i./ha): 24.6 cm | mortality at 2 ppm ([4]; sprayed at 2 ppm): ≥ 80% | mortality at 10 ppm ([4]; sprayed at 10 ppm): ≥ 80% | mortality at 50 ppm ([5]; sprayed at 50 ppm): ≥ 80% | mortality at 250 ppm ([5]; sprayed at 250 ppm): ≥ 80% | crop vigor (visual rating, 0 to 200% scale, control = 100%) [6]: 100%
